Measurements: US20250129054A1 (Terran Biosciences Inc., priority 2022, published 2025)

Test system: post-traumatic stress disorder (PTSD)
Test: Double-blind, randomized, placebo-controlled clinical trial of methylone-assisted psychotherapy in PTSD
Type: in vivo, human
Settings: at Study Conclusion
Method: A multicenter, randomized, double-blind, placebo-controlled trial is conducted to assess the efficacy and safety of methylone-assisted psychotherapy versus psychotherapy with placebo control in participants diagnosed with at least moderate post-traumatic stress disorder (PTSD).
This multicenter, randomized, double-blind, placebo-controlled trial is conducted at various sites in the United States with IRB approval from each study site. A flexible dose of methylone hydrochloride salt or placebo, followed by a supplemental half-dose unless contraindicated by patient's previous response or medical history, is also administered during the Treatment Period with psychotherapy in at least 3 blinded monthly Experimental Sessions. The Supplemental Dose extends the duration of drug effects on the participants during an Experimental Session. Methylone test groups are further subdivided into specific groups receiving only racemic methylone hydrochloride salt, S-methylone hydrochloride salt, or R-methylone hydrochloride salt. An optional Risk Evaluation and Mitigation Strategy (REMS) Protocol may be implemented for the racemic methylone, S-methylone, and placebo-groups. The Treatment Period lasts for approximately 12 weeks. During the Treatment Period, each Experimental Session is followed by three Intervening Sessions of non-drug psychotherapy. Each Experimental Session involves an overnight stay. The Primary Outcome measure, the change in Clinician Administered PTSD Scale for DSM-5 (CAPS-5), is determined by a blinded Independent Rater (IR) pool multiple times throughout the study. The study consists of separate periods for each participant. Initially, prospective participants undergo a Screening Period involving an initial eligibility assessment, a medical history intake, informed consent, and enrollment of eligible participants. Next, a Preparation Period is undertaken for enrolled participants involving medication tapering and clinical baseline assessments to confirm each participant meets enrollment criteria. As part of the Preparation Period, a detailed assessment of co-morbidities to PTSD is recorded. Participants may remain on prescribed courses of selective serotonin reuptake inhibitor (SSRI) or serotonin and norepinephrine reuptake inhibitor (SNRI) treatment. Dosages and/or frequency of administration of a prescribed SSRI or SNRI may be adjusted to fit within study parameters. Participants may be required to taper a prescribed course of medication in order to maintain eligibility within the study. The Treatment Period consists of three monthly Experimental Sessions and associated Intervening Sessions of integrative behavioral psychotherapy. The Treatment Period lasts approximately 12 weeks. Following the Treatment Period is a Follow-up Period and Study Conclusion. During the Follow-up Period and Study Conclusion, participants complete 4 weeks with no study visits, followed by a Study Conclusion visit.
This study compares the effects of three blinded Experimental Sessions of psychotherapy in combination with flexible doses of methylone or placebo administered as described below. Non-drug preparatory and intervening psychotherapy sessions are also included. Patient's weight is determined for dosage calculation. Initial dose is 100 mg unless this will result in a dosage of less than 1.5 mg/kg of patient weight. Initial dose thereby adjusted upward in 25 mg increments to deliver the lowest dose possible of at least 1.5 mg/kg of patient weight. Initial dose for Experimental Session 2 and 3 is cumulative dose calculated by adding the initial dose plus REMS protocol dose used the previous Experimental Session for each patient.
Randomization occurs prior to the initiation of Experimental Session 1. Each participant is provided the next randomized number in a sequence by a blinded study monitor. […]

[1] = compared to placebo-treated controls

CNC(C)C(=O)c1ccc2c(c1)OCO2 (racemic) [racemic methylone]
daytime sleepiness as measured by ESS: significant improvement in lessening daytime sleepiness
clinician-rated functional impairment score as measured by SDS [1]: significant improvement
depression as measured by HAM-D [1]: significant improvement
change in CAPS-5 assessment (with psychotherapy, compared to the placebo group, PTSD participants): significant mean reduction
